“Also recorded” adds a separate entry of the source.
Legend:
TRPV4 = TRPV4 (Rattus norvegicus, UniProt Q9ERZ8); conditions: for average peak ∆Ca++ concentration: ≈100 cells, vehicle control 1156
Procedure: We assessed TRPV4-inhibitory potency of these synthetic compounds in a Ca^++ imaging assay in neuronal 2a (N2a) permanent tissue culture cells with directed expression of mammalian (rat) TRPV4. […] For first round assessment, all TRPV4-inhibitory compounds were used at 5 μM (Fig. 2A).
(A) Ca^++ imaging screening of all compounds in N2A cells with directed expression of TRPV4 (rat). […] The number on each bar corresponds to average peak ∆Ca^++ concentrations in ≈100 cells. Inset: micrographs of pseudo-colored cells before and after activation with 5nM GSK101, in addition note the corresponding time course of the averaged Ca^++ signal (fura-2 Ca^++ imaging). […] Plot generated from averaged peak ∆Ca^++ concentration of ≥75 cells per data-point.
TRPV4-eGFP from rat was used, previously found to respond to stimulation with GSK101 and hypotonicity in similar manner as native, non-fused TRPV4.

TRPA1 = TRPA1 (Mus musculus, UniProt Q8BLA8)
Procedure: Mean±SEM is shown, ≥100 cells per condition. […] Plot generated from averaged peak ∆Ca^++ concentration of ≥75 cells per data-point.
N2a cells were used for directed expression of TRP ion channels as described previously[13]. […] All other channels were native channels from mouse, eGFP was co-transfected. […] Ca^++ imaging was performed as described previously[13][14][34].
To visualize dose-response relationships, Hill plots were conducted using the Igor Pro software program, which derived the plots based on the following equation:

[1] = test system: formalin-evoked trigeminal irritant pain (TRPA1 contribution); experiment: Trigeminal formalin irritant pain model, Trpv4-/- mice; assay type: in vivo, mouse; conditions: 25 mg/kg i.p.
Procedure: Figure 7 16-8 and 16-19 effectively attenuate formalin-evoked trigeminal irritant pain. (A) Time-course of nocifensive behavior in WT mice following whisker-pad injection of 4% formalin. The mice were pre-injected (i.p., 10 mg/kg; 15 min before formalin) with GSK205, 16-8 or 16-19. Note effective reduction of nocifensive behavior in the late “neural” phase by compounds 16-8, 16-19, not by GSK205. (B) Cumulative response binned into 3 phases: acute phase (0–5 min), interphase (5–15 min), and late “neural” phase (15–45 min). […] (C) As in (A), but also including Trpv4^−/− mice. Compounds were applied i.p. 15 min before formalin challenge, at 10 mg/kg except established TRPA1 blocker, A967079 (25 mg/kg). Previously-established attenuated nocifensive behavior in early and late phase in Trpv4^−/− mice was recapped, which was reduced further by TRPA1 blocker, A967079. (D) As in (B), plus inclusion of Trpv4^−/− mice. Robust effects of TRPA1-blocker, A967079, were mimicked equi-potently by 16-8 and 16-19 for early phase, and by 16-8 for late phase, partially by 16-19 for late phase. (A,C) show averaged behavioral metrics per time-point, bars in (B,D) represent mean ± SEM; for (D) ^*P < 0.05; ^#P < 0.005, one-way ANOVA; for all panels n = 5–8 mice/group. […] We observed significant residual irritant-pain behavior in all phases of the formalin model in Trpv4^−/− mice, consistent with our previous report[13] (Fig. 7C,D). […] A reference TRPA1-inhibitory compound, A967079, was used at 25 mg/kg body weight as a positive control to inhibit TRPA1, based on a previous report. Reduction of pain behavior in Trpv4^−/− mice was striking, more than 50% in the late neural phase. […] We conclude that compound 16-8 also functions as a potent TRPA1-inhibitor in an in-vivo irritant pain model specifically designed to assess the contribution of TRPA1 to trigeminal irritant pain, and at least as potent as an established reference TRPA1-antagonistic compound. Implementation of this model was conducted as described previously. Video-taped nocifensive behavior was assessed by investigators blinded to genotype and treatment.

[2] = test system: formalin-evoked trigeminal irritant pain; set-up: method as in PMID 25281928; conditions: intradermal injection; cited from earlier work
[3] = test system: formalin-evoked trigeminal irritant pain; experiment: Trigeminal formalin irritant pain model, WT mice; assay type: in vivo, mouse; conditions: 10 mg/kg i.p., 15 min before 4% formalin, 15–45 min
Procedure: Figure 7 16-8 and 16-19 effectively attenuate formalin-evoked trigeminal irritant pain. (A) Time-course of nocifensive behavior in WT mice following whisker-pad injection of 4% formalin. The mice were pre-injected (i.p., 10 mg/kg; 15 min before formalin) with GSK205, 16-8 or 16-19. Note effective reduction of nocifensive behavior in the late “neural” phase by compounds 16-8, 16-19, not by GSK205. (B) Cumulative response binned into 3 phases: acute phase (0–5 min), interphase (5–15 min), and late “neural” phase (15–45 min). […] (C) As in (A), but also including Trpv4^−/− mice. Compounds were applied i.p. 15 min before formalin challenge, at 10 mg/kg except established TRPA1 blocker, A967079 (25 mg/kg). Previously-established attenuated nocifensive behavior in early and late phase in Trpv4^−/− mice was recapped, which was reduced further by TRPA1 blocker, A967079. (D) As in (B), plus inclusion of Trpv4^−/− mice. Robust effects of TRPA1-blocker, A967079, were mimicked equi-potently by 16-8 and 16-19 for early phase, and by 16-8 for late phase, partially by 16-19 for late phase. (A,C) show averaged behavioral metrics per time-point, bars in (B,D) represent mean ± SEM; for (D) ^*P < 0.05; ^#P < 0.005, one-way ANOVA; for all panels n = 5–8 mice/group. Implementation of this model was conducted as described previously. Video-taped nocifensive behavior was assessed by investigators blinded to genotype and treatment.

Sequence of TRPA1 (Q8BLA8 whole entry): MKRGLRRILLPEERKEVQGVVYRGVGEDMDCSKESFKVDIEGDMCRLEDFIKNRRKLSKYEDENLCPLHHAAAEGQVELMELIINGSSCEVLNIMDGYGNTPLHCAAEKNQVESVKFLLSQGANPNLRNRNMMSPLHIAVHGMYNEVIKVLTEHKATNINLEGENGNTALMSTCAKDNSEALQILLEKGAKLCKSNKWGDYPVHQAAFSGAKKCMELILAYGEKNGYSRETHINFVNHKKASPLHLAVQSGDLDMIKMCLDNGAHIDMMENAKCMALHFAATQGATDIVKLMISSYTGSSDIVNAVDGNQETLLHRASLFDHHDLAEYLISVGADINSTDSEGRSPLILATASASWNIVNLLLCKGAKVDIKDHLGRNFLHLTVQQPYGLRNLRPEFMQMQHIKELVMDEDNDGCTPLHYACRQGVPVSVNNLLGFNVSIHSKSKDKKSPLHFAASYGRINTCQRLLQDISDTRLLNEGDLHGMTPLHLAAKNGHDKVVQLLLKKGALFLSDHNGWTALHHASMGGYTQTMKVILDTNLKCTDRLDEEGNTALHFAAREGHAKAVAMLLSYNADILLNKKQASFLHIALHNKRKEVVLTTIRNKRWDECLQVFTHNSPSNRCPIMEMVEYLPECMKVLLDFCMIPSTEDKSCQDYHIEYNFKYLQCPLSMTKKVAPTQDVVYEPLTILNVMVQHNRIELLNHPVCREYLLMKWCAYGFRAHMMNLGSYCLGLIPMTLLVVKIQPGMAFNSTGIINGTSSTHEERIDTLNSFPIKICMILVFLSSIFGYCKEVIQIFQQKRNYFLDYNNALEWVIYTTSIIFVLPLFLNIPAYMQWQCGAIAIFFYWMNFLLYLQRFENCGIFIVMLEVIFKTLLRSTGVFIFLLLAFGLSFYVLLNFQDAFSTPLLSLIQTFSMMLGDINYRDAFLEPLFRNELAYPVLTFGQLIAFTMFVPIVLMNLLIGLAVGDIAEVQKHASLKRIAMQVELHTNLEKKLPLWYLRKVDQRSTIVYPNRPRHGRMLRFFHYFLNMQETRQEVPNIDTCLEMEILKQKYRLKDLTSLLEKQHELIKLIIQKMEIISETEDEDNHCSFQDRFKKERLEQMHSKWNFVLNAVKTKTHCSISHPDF
Sequence of TRPV4 (Q9ERZ8 whole entry): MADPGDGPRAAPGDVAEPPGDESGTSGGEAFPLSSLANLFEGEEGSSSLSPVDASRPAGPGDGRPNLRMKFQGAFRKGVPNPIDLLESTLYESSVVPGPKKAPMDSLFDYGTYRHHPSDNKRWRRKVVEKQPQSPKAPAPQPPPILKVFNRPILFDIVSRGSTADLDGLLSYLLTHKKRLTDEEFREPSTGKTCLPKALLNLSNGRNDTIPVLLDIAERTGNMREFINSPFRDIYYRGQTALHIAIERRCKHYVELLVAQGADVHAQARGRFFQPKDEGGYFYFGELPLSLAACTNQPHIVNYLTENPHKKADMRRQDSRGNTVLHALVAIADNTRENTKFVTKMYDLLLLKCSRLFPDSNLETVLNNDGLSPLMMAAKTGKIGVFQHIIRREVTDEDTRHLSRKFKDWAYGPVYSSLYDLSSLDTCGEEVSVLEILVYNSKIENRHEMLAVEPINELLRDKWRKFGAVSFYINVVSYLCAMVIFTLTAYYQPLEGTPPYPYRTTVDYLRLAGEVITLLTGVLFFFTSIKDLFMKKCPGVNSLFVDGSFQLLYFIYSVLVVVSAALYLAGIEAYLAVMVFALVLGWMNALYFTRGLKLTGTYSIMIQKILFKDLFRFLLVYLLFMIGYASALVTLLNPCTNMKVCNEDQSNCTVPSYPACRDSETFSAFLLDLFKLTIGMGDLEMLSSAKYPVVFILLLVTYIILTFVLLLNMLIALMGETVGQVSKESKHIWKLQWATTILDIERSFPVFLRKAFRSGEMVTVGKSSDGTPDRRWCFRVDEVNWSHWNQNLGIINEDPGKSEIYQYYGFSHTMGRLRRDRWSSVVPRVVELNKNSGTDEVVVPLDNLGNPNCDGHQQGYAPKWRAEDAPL

Structure (SMILES): CN(CCc1ccc(Nc2nc(-c3cccnc3)cs2)cc1)CCc1cccnc1 [16-12]
- average peak ∆Ca++ concentration (TRPV4; 5 μM inhibitor, GSK101 5 nM): 39.5 nM

Structure (SMILES): CN(CCc1ccc(Nc2nc(-c3ccncc3)cs2)cc1)Cc1ccccc1 [16-13]
- average peak ∆Ca++ concentration (TRPV4; 5 μM inhibitor, GSK101 5 nM): 52 nM

Structure (SMILES): CN(CCc1ccc(Nc2nc(-c3ccccn3)cs2)cc1)Cc1ccccc1 [16-14]
- average peak ∆Ca++ concentration (TRPV4; 5 μM inhibitor, GSK101 5 nM): 558 nM

Structure (SMILES): CN(CCc1ccc(Nc2nc(-c3cccnc3)cs2)cc1)c1ccccc1 [16-16]
- average peak ∆Ca++ concentration (TRPV4; 5 μM inhibitor, GSK101 5 nM): 263 nM

Structure (SMILES): CCN(CCc1ccc(Nc2nc(-c3cccnc3)cs2)cc1)Cc1ccccc1 [16-18]
- average peak ∆Ca++ concentration (TRPV4; 5 μM inhibitor, GSK101 5 nM): 14 nM
- increased potency over GSK205 (TRPV4; from TRPV4 IC50 values): ~5 fold
- IC50 (TRPA1): > 25 µM
- activity vs TRPA1 (TRPA1; 100 μM mustard oil, N2a cells): no significant activity

Structure (SMILES): CN(CCc1ccc(Nc2ncc(-c3cccnc3)s2)cc1)Cc1ccccc1 [16-43C]
- inhibition of TRPV4-mediated Ca++ influx (TRPV4; 5 μM inhibitor, GSK101 5 nM): did not inhibit Ca^++ influx
- average peak ∆Ca++ concentration (TRPV4; 5 μM inhibitor, GSK101 5 nM): 1210 nM

Structure (SMILES): CCC(=N\O)/C(C)=C/c1ccc(F)cc1 [A967079, reference compound]
- reduction of pain behavior, late neural phase [1]: more than 50%

Structure (SMILES): CN(CCc1ccc(Nc2nc(-c3cccnc3)cs2)cc1)Cc1ccccc1 [GSK205, reference compound]
- IC50 (TRPV4): 4.19 ± 0.71 µM
- average peak ∆Ca++ concentration (TRPV4; 5 μM inhibitor, GSK101 5 nM): 650 nM
- IC50 (TRPA1): 5.56 µM
- attenuation of trigeminal formalin-evoked pain behavior [2]: effective attenuation; also recorded: effective previously in a dose-dependent manner
- pain behavior, delayed (late neural) phase [3]: no significant effect
